System: Balb/c mice
Experiment: Polypeptide chip-based vaccine immunogenicity scoring system
Format: in vivo
Design: key to A2: whether the 95 percentile of the last sampling is increased compared with the end point: Y = rise; N = no rise
Settings: for Total single peptide: A*3 + B*2 + C*1; for A: 95 percentile grouping number score / B: Mouse performance score: total score = 5; for C1: #A timing-sequence response peptide fragment set / C2: #B vaccine specificity peptide fragment set / C3: Intersection of A and B / C4: Percentage of the intersection in set B / C: Timing-sequence response and specificity score: value of the whole mix
Procedure: Data distribution and characteristics thereof are analyzed based on a) and b), a polypeptide chip-based vaccine immunogenicity scoring system (referring to Table 7) is designed.
10 combinations are evaluated by the polypeptide chip-based vaccine immunogenicity scoring system. An evaluation method is consistent with that in Embodiment II. Evaluation results are show in the table below.
This embodiment is consistent with Embodiment II. Each combination is evaluated by the polypeptide chip-based vaccine immunogenicity scoring system. Evaluation results are show in the table below.

[1] = Embodiment III, polypeptide-KLH
[2] = Embodiment III, polypeptide-KLH, Mix1-10

Sequence	B1: D 0-D 14 95 percentile rise in the number of mice [1]	B2: D 0-D 21 95 percentile rise in the number of mice [1]	B3: D 14-D 21 95 percentile rise in the number of mice [1]	B4: D 21-D 28 95 percentile rise in the number of mice [1]	A1: difference between a highest median and a D 0 median (95 percentile) [2]	A2: whether the 95 percentile of the last sampling is increased compared with the end point [2]	Total single peptide [1]	A: 95 percentile grouping number score [1]	B: Mouse performance score [1]	C1: #A timing-sequence response peptide fragment set [1]	C2: #B vaccine specificity peptide fragment set [1]	C3: Intersection of A and B [1]	C4: Percentage of the intersection in set B [1]	C: Timing-sequence response and specificity score [1]	other results
ALDPLSETKCT (SARS-CoV-2) [SEQ ID NO:4]	2	3	2	0	0.15	N	17.7	4.5	1.6	1494	190	2	1.053	1	
ALNTPKDH (SARS-CoV-2) [SEQ ID NO:19]	3	3	0	1	0.12	N	17.9	4.5	1.7	288	268	4	1.493	1	
DNQDLNGNWY (SARS-CoV-2) [SEQ ID NO:31]	2	3	2	0	0.93	N	14.2	3.5	1.6	511	364	1	0.275	0.5	
DSFKEELDKY (SARS-CoV-2) [SEQ ID NO:33]	3	3	1	1	0.13	N	18.3	4.5	1.9	288	268	4	1.493	1	
DYNYKLPDD (SARS-CoV-2) [SEQ ID NO:11]	3	3	1	2	0.12	Y	20.2	5	2.1	288	268	4	1.493	1	
ECVLGQSKR (SARS-CoV-2) [SEQ ID NO:10]	3	3	1	0	0.11	N	17.9	4.5	1.7	1494	190	2	1.053	1	
ERSEKSYEL (SARS-CoV-2) [SEQ ID NO:28]	1	2	0	1	0.11	N	14.3	4	0.9	1212	389	1	0.257	0.5	
ETSNSFDVLKSE [SEQ ID NO:30]	2	2	2	1	0.02	N	6.7	1	1.6	230	251	1	0.398	0.5	
EVFAQVKQIY (SARS-CoV-2) [SEQ ID NO:13]	3	3	0	2	0.08	Y	14.8	3.5	1.9	1212	389	1	0.257	0.5	
FHPLADNKF (SARS-CoV-2) [SEQ ID NO:17]	3	2	0	2	0.10	Y	17.4	4.5	1.7	133	431	1	0.232	0.5	
GRLQSLQTY (SARS-CoV-2) [SEQ ID NO:5]	3	2	0	2	0.11	Y	18.9	5	1.7	133	431	1	0.232	0.5	
GTITVEELKK (SARS-CoV-2) [SEQ ID NO:39]	1	2	2	0	0.03	N	5.7	1	1.1	145	529	1	0.189	0.5	
GVYYPDKVFR (SARS-CoV-2) [SEQ ID NO:7]	3	3	0	0	0.09	N	14	3.5	1.5	145	529	1	0.189	0.5	A2: whether the 95 percentile of the last sampling is increased compared with the end point (Embodiment II, Combination 2): N; B1: D 0-D 14 95 percentile rise in the number of mice (Embodiment II, Combination 2): 5; B2: D 0-D 21 95 percentile rise in the number of mice (Embodiment II, Combination 2): 0; B3: D 14-D 21 95 percentile rise in the number of mice (Embodiment II, Combination 2): 0; B4: D 21-D 28 95 percentile rise in the number of mice (Embodiment II, Combination 2): 1; Total single peptide (Embodiment II, Combination 2): 18.9; A: 95 percentile grouping number score (Embodiment II, Combination 2): 5; B: Mouse performance score (Embodiment II, Combination 2): 1.7; A1: difference between a highest median and a D 0 median (95 percentile) (Embodiment II, mice immunized with Combination 2): 0.4

Source: US20230136600A1, “Method and device for screening antigen epitope polypeptide” (priority 2020, published 2023)
